Test results as given in US6809200B2, “Process for the preparation of pyrazolo[4,3-d]pyrimidin-7-one compounds and intermediates thereof” (Pfizer Inc., priority 2000, dated 2004).

Key:
[1] = Preliminary analysis of hygroscopicity / hydration state; type: physicochemical; details: solid compound
[2] = Dynamic Vapour Sorption (DVS) measurements; type: physicochemical
Source text: Dynamic Vapour Sorption (DVS) measurements were made for the compound of Example 12 by exposing a solid sample to controlled relative humidity (% RH) and weight change recorded with time on an automated water sorption analyser.

SMILES	hygroscopicity (preliminary analysis) [1]	weight lost on drying (sorption/desorption isotherm) ([2]; DVS, loss due to residual solvent or surface moisture) [%]	hygroscopicity ([2]; solid sample exposed to controlled relative humidity)
CCCCOc1ncc(C(C)=O)cc1-c1nc2c(CC)n(C3CN(CC)C3)nc2c(=O)[nH]1 [compound 1A, 5-(5-Acetyl-2-butoxy-3-pyridinyl)-3-ethyl-2-(1-ethyl-3-azetidinyl)-2,6-dihydro-7H-pyrazolo[4,3-d]pyrimidin-7-one]	anhydrous and non-hygroscopic	–	–
CCCCOc1ncc(C(C)=O)cc1-c1nc2c(CC)n(C3CN(CC)C3)nc2c(=O)[nH]1.O=S(=O)(O)c1ccccc1 [Example 12, 5-(5-Acetyl-2-butoxy-3-pyridinyl)-3-ethyl-2-(1-ethyl-3-azetidinyl)-2,6dihydro-7H-pyrazolo[4,3-d]pyrimidin-7-one benzenesulfonate]	–	0.9	non-hygroscopic
